Experimental data published in US12325708B2, “Adenosine 2 receptor antagonists” (Nektar Therapeutics, priority 2019, dated 2025).
Where two headings read alike, the source gives them in different places.

How the values were obtained:
[1] = Plasma pharmacokinetic parameters following intravenous (IV) or oral (PO) administration in rats; assay type: in vivo, Sprague-Dawley rats; conditions: rat; for Vd: read-out: Vss obs; for Cmax: read-out: Cmax; for Tmax: read-out: Tmax; for Total clearance as % liver blood flow: IV; for F: PO 2.5 mg/kg vs IV 0.5 mg/kg
Procedure: (§1) Adult male Sprague-Dawley rats (230-250 g) (Charles River Labs, Hollister, CA) were utilized for the study. There were 2 rats/group. All animals were food fasted overnight with water provided ad libitum at all times. Compounds 1, 4, 14 and 19 were synthesized as described in Examples 2, 17, 7, and 12, respectively, and formulated in injectable water.
(§2) The morning of each dosing, individual doses were calculated based on current body weights on the day of dosing. The jugular vein cannula (JVC) and the carotid artery cannula (CAC) were externalized, flushed with HEP/saline (10 IU/mL HEP/mL saline), plugged, and labeled to identify the jugular vein and the carotid artery. The IV group animals were dosed at 0.5 mg/kg of Compound 1, 4, 14 or 19, respectively, intravenously via the jugular vein, while the PO dose was administered 2.5 mg/kg of Compound 1, 4, 14 or 19, respectively, orally via gavage. For the IV group, immediately following the dose of test article, the dead volume of the catheter was flushed with 0.9% saline to ensure the animals received the full dose.
Approximately 0.2 mL of blood was collected per time point from JVC. Blood samples were collected at 2 (IV group only), 5, 15, 30, 60, 120, 240, 360, 420 (Compound 19 only), 480, 720 (Compound 19 only), and 1440 minutes via the CAC and transferred immediately into K2EDTA coated tubes pre-loaded 2 μl with quenching cocktail and placed on wet ice. The samples were centrifuged within 30 min after collection at 10,000 RPM for 5 minutes and the resulting plasma was separated. Plasma was transferred into microfuge tubes and placed on dry ice immediately. The plasma samples were stored at approximately −70° C. until bioanalysis.
Plasma samples were extracted by protein precipitation with acetonitrile containing 0.1% formic acid and doxepin for Compound 1 (available from Sigma-Aldrich) or SCH58261 for Compounds 4, 14 and 19 (available from Sigma-Aldrich) as an internal standard. Following vortex and centrifugation, supernatant was diluted 3-fold with water containing 0.1% formic acid and analyzed by LC-MS/MS.
Pharmacokinetic parameters (PK) were determined by non-compartmental analysis (NCA) using Phoenix 64 WinNonlin (version 8) and Dotmatics (version 5.0). Nominal doses and time points were used for the analysis.
The following PK parameters were estimated using plasma concentration-time profile of each animal with the results presented in Table 3: • AUCinf Area under the concentration-time from zero to time infinity • AUClast Area under the concentration-time from zero to time of last concentration value • F Bioavailability • CL Total body clearance • Cmax Maximum (peak) concentration • MRTlast Mean residence time to last observable concentration • Tmax Time to reach maximum or peak concentration following administration • Vss Volume of distribution at steady state
as §1, with “Compound 1 was” for “Compounds 1, 4, 14 and 19 were”, “Example 2” for “Examples 2, 17, 7, and 12, respectively,”
as §2, with “1” for “1, 4, 14 or 19, respectively,”
Approximately 0.2 mL of blood was collected per time point from JVC. […]

[2] = Brain-to-plasma ratio (B/P) after administration; assay type: in vivo, Sprague-Dawley rats; conditions: Sprague-Dawley, rat, brain-to-plasma ratio at 1 h
Source text: A similar unexpected result was obtained when the phenyl ring present on Compound 1 was replaced with a halogen substituted pyridine. The halogen was previously introduced on the phenyl ring with the aim of blocking a possible metabolic soft-spot, with similar results observed as for Compound 1 in terms of exposure, clearance and bioavailability (Compound 10 and Compound 15). The substituted pyridine ring was designed to modulate the lipophilicity and polar surface area, as well as to address metabolic soft-spot concerns. Clearance and bioavailability parameters remain similar between substituted phenyl and pyridine (Compound 4 and Compound 14) analogs, which span a range in cLogP of 2.7-3.2. It was therefore surprising the significant improvement in exposure and clearance observed for the more lipophilic Compound 19. […] A compound is commonly deemed to be a brain penetrant if the brain-to-blood/plasma concentration ratio (B/P) is greater than 0.04 using methods as known in the art (Schaffer, Annual Reports in Medicinal Chemistry, 45:55-70, 2010).
Plasma pharmacokinetic parameters were determined following oral (PO) administration of further compounds essentially as described in Example 28 with the results shown in Table 6.

A1 receptor = target: T1, A1 receptor (Homo sapiens, UniProt P30542); test: Radioligand receptor binding assay, A1 receptor; conditions: cell membranes overexpressing A1 receptor, read-out: Potency Ki A1
T1 construct: purchased
T1 sequence (P30542 1-326): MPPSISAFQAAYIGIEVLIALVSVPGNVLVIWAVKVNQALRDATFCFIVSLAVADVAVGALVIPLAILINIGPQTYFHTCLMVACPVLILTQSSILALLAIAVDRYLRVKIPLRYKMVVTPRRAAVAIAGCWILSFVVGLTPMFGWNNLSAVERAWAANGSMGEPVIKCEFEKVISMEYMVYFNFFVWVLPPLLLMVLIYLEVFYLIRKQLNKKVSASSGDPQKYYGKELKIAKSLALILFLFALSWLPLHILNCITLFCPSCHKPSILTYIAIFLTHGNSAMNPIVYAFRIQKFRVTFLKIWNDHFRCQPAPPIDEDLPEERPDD
Procedure: (§3) Using conventional receptor binding assay techniques, Compounds 1-24 were assayed to determine binding activity at the A2A, A1, and A3 receptors with the results shown in Table 7.
(§4) Receptor binding affinity of Compounds 1-24 was measured using radioligand binding assays using commercially obtained cell membranes prepared from cell lines overexpressing the A2A, A1, or A3 receptors. Briefly, cell membrane preparations from cells expressing the specific receptor were mixed with the appropriate [^3H]-labeled tracer for the specific receptor and the test compound or a known inhibitor of receptor-ligand binding. Following 60 min incubation at room temperature to allow receptor-ligand complex formation, the complexes were collected by filtration, washed with 50 mM Tris HCl (pH 7.5) to remove radioligand that was not receptor-bound, and the remaining radioactivity determined by liquid scintillation counting. Specific radioligand binding was calculated for each test compound concentration and IC50 values were determined by non-linear, regression analysis. Inhibition constants (Ki) were calculated using the equation of Cheng and Prusoff using the observed IC50 of the tested compound, the concentration of radioligand employed in the assay and the experimentally determined values for the Kd of the ligand.

A2A receptor = target: T2, A2A receptor (Homo sapiens, UniProt P29274); test: Radioligand receptor binding assay, A2A receptor; conditions: cell membranes overexpressing A2A receptor, read-out: Potency Ki A2A
T2 construct: purchased
Procedure: as §3, §4

[3] = male, Sprague-Dawley, plasma, 2.5 mg/kg, Table 6, oral (PO) administration essentially as described in Example 28
[4] = male, Sprague-Dawley, plasma, intravenous, 0.5 mg/kg, Table 6, essentially as described in Example 28
[5] = male, Sprague-Dawley, plasma, po, 2.5 mg/kg, Table 6, oral (PO) administration essentially as described in Example 28
[6] = male, Sprague-Dawley, plasma, intravenous, 0.5 mg/kg, Table 2 summary of Example 27, values marked 1 are the average of experiments
[7] = male, Sprague-Dawley, plasma, iv, 0.5 mg/kg, IV 0.5 mg/kg, injectable water
[8] = male, Sprague-Dawley, plasma, oral, 2.5 mg/kg, Table 2 summary of Example 27, values marked 1 are the average of experiments
[9] = male, Sprague-Dawley, plasma, po, 2.5 mg/kg, PO 2.5 mg/kg via gavage, injectable water

T2 sequence (P29274 whole entry): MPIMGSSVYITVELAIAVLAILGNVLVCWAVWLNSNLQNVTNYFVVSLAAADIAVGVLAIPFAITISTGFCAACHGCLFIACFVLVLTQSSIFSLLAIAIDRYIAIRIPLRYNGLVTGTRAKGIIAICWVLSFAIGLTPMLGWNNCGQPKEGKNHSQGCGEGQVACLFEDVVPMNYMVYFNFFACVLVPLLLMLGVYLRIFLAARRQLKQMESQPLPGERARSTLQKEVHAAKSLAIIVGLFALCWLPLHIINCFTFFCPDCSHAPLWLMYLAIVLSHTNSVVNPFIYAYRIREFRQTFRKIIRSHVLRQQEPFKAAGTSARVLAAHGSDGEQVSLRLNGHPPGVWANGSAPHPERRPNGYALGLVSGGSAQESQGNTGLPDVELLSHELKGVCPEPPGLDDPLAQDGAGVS

AUC [1, 3]	clearance [1, 4]	bioavailability [1, 5]	Kp at 1 h ([2]; oral, 2.5 mg/kg, Table 6)	Ki (A1 receptor)	Ki (A2A receptor)	Structure (SMILES)	clearance [1, 6]	AUC(0-inf) [1, 7]	AUC(0-t) [1, 7]	MRT last [1, 7]	clearance [1, 7]	Vd [1, 7]	AUC [1, 8]	bioavailability [1, 8]	AUC(0-inf) [1, 9]	AUC(0-t) [1, 9]	MRT last [1, 9]	Cmax [1, 9]	Tmax [1, 9]	Total clearance as % liver blood flow [1]	further results
709 ng·h/mL	33 mL/min/kg	57%	0.06	32400 nM	4 nM	[2H]C([2H])([2H])OC([2H])([2H])C([2H])([2H])Oc1cnc(N2CCN(CCN(C)c3cc4nc(-c5ncco5)nn4c(N)n3)CC2)c(F)c1 [Compound 13, N^7-(2-{4-[3-fluoro-5-({2-[(^2H3)methyloxy](^2H4)ethyl}oxy)pyridin-2-yl]piperazin-1-yl}ethyl)-N^7-methyl-2-(1,3-oxazol-2-yl)[1,2,4]triazolo[1,5-c]pyrimidine-5,7-diamine]															
1160 ng·h/mL	20 mL/min/kg	57%	0.05	3940 nM	2.3 nM	COCCOc1ccc(N2CCN(CCN(C)c3cc4nc(-c5ncco5)nn4c(N)n3)CC2)c(Cl)c1 [Compound 15, N^7-(2-{4-[2-chloro-4-(2-methoxyethoxy)phenyl]piperazin-1-yl}ethyl)-N^7-methyl-2-(1,3-oxazol-2-yl)[1,2,4]triazolo[1,5-c]pyrimidine-5,7-diamine]															half-life ([1]; male, Sprague-Dawley, plasma, Table 6, printed in the CL column, read-out: t½ (converted)): 1.2 h
406 ng·h/mL	44 mL/min/kg	43%	0.03	11800 nM	20 nM	COCCOc1ccc(N2CCN(CCN(C)c3cc4nc(-c5ncco5)nn4c(N)n3)CC2)c(OC)c1 [Compound 17, N^7-(2-{4-[2-methoxy-4-(2-methoxyethoxy)phenyl]piperazin-1-yl}ethyl)-N^7-methyl-2-(1,3-oxazol-2-yl)[1,2,4]triazolo[1,5-c]pyrimidine-5,7-diamine]															
900 ng·h/mL	33 mL/min/kg	71%	0.09	> 100000 nM	8 nM	[2H]C([2H])([2H])OC([2H])([2H])C([2H])([2H])Oc1ccc(N2CCN(CCN(c3cc4nc(-c5ncco5)nn4c(N)n3)C([2H])([2H])[2H])CC2)cc1 [Compound 18, N^7-(^2H3)methyl-N^7-(2-{4-[4-({2-[(^2H3)methyloxy](^2H4)ethyl}oxy)phenyl]piperazin-1-yl}ethyl)-2-(1,3-oxazol-2-yl)[1,2,4]triazolo[1,5-c]pyrimidine-5,7-diamine]															

Structure (SMILES)	AUC [1, 3]	clearance [1, 4]	bioavailability [1, 5]	Kp at 1 h ([2]; oral, 2.5 mg/kg, Table 6)	Ki (A1 receptor)	Ki (A2A receptor)	clearance [1, 6]	AUC(0-inf) [1, 7]	AUC(0-t) [1, 7]	MRT last [1, 7]	clearance [1, 7]	Vd [1, 7]	AUC [1, 8]	bioavailability [1, 8]	AUC(0-inf) [1, 9]	AUC(0-t) [1, 9]	MRT last [1, 9]	Cmax [1, 9]	Tmax [1, 9]	Total clearance as % liver blood flow [1]	further results
COCCOc1cnc(N2CCN(CCN(C)c3cc4nc(-c5ncco5)nn4c(N)n3)CC2)c(Cl)c1 [Compound 14, N^7-(2-{4-[3-chloro-5-(2-methoxyethoxy)pyridin-2-yl]piperazin-1-yl}ethyl)-N^7-methyl-2-(1,3-oxazol-2-yl)[1,2,4]triazolo[1,5-c]pyrimidine-5,7-diamine]					15000 nM	4 nM	17 mL/min/kg	526 ng·h/mL	523 ng·h/mL	0.977 h	16.6 mL/min/kg	1.02 L/kg	1480 ng·h/mL	56%	1480 ng·h/mL	1370 ng·h/mL	2.43 h	373 ng/mL	1 h	~28 % liver blood flow	F [1]: 56.1%; Kp at 1 h ([2]; Table 2): 0.025
COCCOc1cnc(N2CCN(CCN(C)c3cc4nc(-c5ncco5)nn4c(N)n3)CC2)c(C(F)(F)F)c1 [Compound 19, N^7-(2-{4-[5-(2-methoxyethoxy)-3-(trifluoromethyl)pyridin-2-yl]piperazin-1-yl}ethyl)-N^7-methyl-2-(1,3-oxazol-2-yl)[1,2,4]triazolo[1,5-c]pyrimidine-5,7-diamine]					16000 nM	4 nM	7 mL/min/kg	1230 ng·h/mL	1220 ng·h/mL	1.48 h	6.85 mL/min/kg	0.635 L/kg	4980 ng·h/mL	83%	5050 ng·h/mL	4980 ng·h/mL	2.65 h	1300 ng/mL	1.25 h	~10 % liver blood flow	Cmax [1, 7]: 1020 ng/mL; Tmax [1, 7]: 0.033 h; MRTlast ([1]; IV 0.5 mg/kg, injectable water, 0.5 mg/kg): 1.4825 h; CL ([1]; PO 2.5 mg/kg row of Table 3): 9.05 mL/min/kg; F [1]: 82.7%; Kp at 1 h ([2]; Table 2): 0.01
